The results in this text go back to patent US11976057B2, “MrgX2 antagonists” (GlaxoSmithKline Intellectual Property Development Limited, priority 2020, dated 2024).

Structures are written as SMILES.

The target in the test is T1, human MRGPRX2 (Homo sapiens, UniProt Q96LB1).
T1 sequence (Q96LB1 1-330): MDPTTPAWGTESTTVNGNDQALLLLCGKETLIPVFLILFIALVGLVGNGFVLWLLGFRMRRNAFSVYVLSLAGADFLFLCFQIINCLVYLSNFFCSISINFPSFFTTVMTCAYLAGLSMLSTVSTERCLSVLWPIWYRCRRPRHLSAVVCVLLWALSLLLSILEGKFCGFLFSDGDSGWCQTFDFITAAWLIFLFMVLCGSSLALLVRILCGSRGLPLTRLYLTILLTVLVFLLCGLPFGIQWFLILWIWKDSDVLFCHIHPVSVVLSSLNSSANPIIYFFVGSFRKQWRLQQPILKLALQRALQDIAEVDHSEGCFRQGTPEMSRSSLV
The test is described as follows: Ca2+ mobilization assay (FLIPR TETRA): inhibition of Cortistatin-14 mediated MRGPRX2 activation.

Compound `C[C@@H](C(=O)Nc1ccc(Oc2ccc(F)c(F)c2)cn1)N1CCC(F)(F)[C@@H](c2ccc(=O)[nH]c2)C1` [Example 268, (S)-2-((S)-4,4-difluoro-3-(6-oxo-1,6-dihydropyridin-3-yl)piperidin-1-yl)-N-(5-(3,4-difluorophenoxy)pyridin-2-yl)propanamide] showed an IC50 of at most 10 nM. Then `COc1cc(F)ccc1Oc1ccc(NC(=O)[C@H](C)N2CCC(F)(F)[C@@H](c3ccc(=O)[nH]c3)C2)nc1` [Example 269], with at most 10 nM. Then `C[C@@H](C(=O)Nc1ccc(Oc2ccc(F)cc2CO)cn1)N1CCC(F)(F)[C@@H](c2ccc(=O)[nH]c2)C1` [Example 271, (S)-2-((S)-4,4-difluoro-3-(6-oxo-1,6-dihydropyridin-3-yl)piperidin-1-yl)-N-(5-(4-fluoro-2-(hydroxymethyl)phenoxy)pyridin-2-yl)propanamide], with 10 to 100 nM; and `C[C@@H](C(=O)Nc1cnc(Oc2ccc(F)cc2CO)cn1)N1CCC(F)(F)[C@@H](c2ccc(=O)[nH]c2)C1` [Example 272], with 10 to 100 nM. `C[C@@H](C(=O)Nc1ccc(Oc2ccc(F)cc2CO)cn1)N1CCC(F)(F)[C@@H](c2cc[n+]([O-])cc2)C1` [Example 273, 4-((S)-4,4-difluoro-1-((S)-1-((5-(4-fluoro-2-(hydroxymethyl)phenoxy)pyridin-2-yl)amino)-1-oxopropan-2-yl)piperidin-3-yl)pyridine 1-oxide] showed an IC50 of 10 to 100 nM. Next, `CC(C(=O)Nc1cnc(Oc2ccc(F)cc2CO)cn1)N1CCC(F)(F)[C@@H](c2cc[n+]([O-])cc2)C1` (stereo partly shown) [Example 274]: 100 to 3160 nM.

For `C[C@@H](C(=O)Nc1ccc(OCC2CC2)nn1)[C@H]1CCC(F)(F)[C@@H](c2ccc(=O)[nH]c2)C1` [Example 276, (R)-N-(6-(cyclopropylmethoxy)pyridazin-3-yl)-2-((1S,3R)-4,4-difluoro-3-(6-oxo-1,6-dihydropyridin-3-yl)cyclohexyl)propanamide], the IC50 fell in the range of 10 to 100 nM. Then `C[C@@H](C(=O)Nc1ccc(F)cn1)[C@H]1CCC(F)(F)[C@@H](c2ccc(=O)[nH]c2)C1` [Example 277, (R)-2-((1S,3R)-4,4-difluoro-3-(6-oxo-1,6-dihydropyridin-3-yl)cyclohexyl)-N-(5-fluoropyridin-2-yl)propanamide], with 10 to 100 nM; and `CC(C(=O)Nc1ccc(Oc2ccc(F)cc2)cn1)C1CCC(F)(F)C(c2ccc(=O)[nH]c2)C1` (stereo not shown) [Example 278, 2-(4,4-difluoro-3-(6-oxo-1,6-dihydropyridin-3-yl)cyclohexyl)-N-(5-(4-fluorophenoxy)pyridin-2-yl)propanamide], with at most 10 nM; and `C[C@@H](C(=O)Nc1ccc(Oc2ccc(F)cn2)cn1)[C@H]1CCC(F)(F)[C@@H](c2ccc(=O)[nH]c2)C1` [Example 279, (R)-2-((1S,3R)-4,4-difluoro-3-(6-oxo-1,6-dihydropyridin-3-yl)cyclohexyl)-N-(5-((5-fluoropyridin-2-yl)oxy)pyridin-2-yl)propanamide], with at most 10 nM. Then `C[C@@H](C(=O)Nc1ccc(Oc2ccc(F)cc2F)cn1)[C@H]1CCC(F)(F)[C@@H](c2ccc(=O)[nH]c2)C1` [Example 280, (R)-2-((1S,3R)-4,4-difluoro-3-(6-oxo-1,6-dihydropyridin-3-yl)cyclohexyl)-N-(5-(2,4-difluorophenoxy)pyridin-2-yl)propanamide], with at most 10 nM; and `C[C@@H](C(=O)Nc1ccc(Oc2ncc(F)cc2F)cn1)[C@H]1CCC(F)(F)[C@@H](c2ccc(=O)[nH]c2)C1` [Example 281, (R)-2-((1S,3R)-4,4-difluoro-3-(6-oxo-1,6-dihydropyridin-3-yl)cyclohexyl)-N-(5-((3,5-difluoropyridin-2-yl)oxy)pyridin-2-yl)propanamide], with at most 10 nM. Then `C[C@@H](C(=O)Nc1ccc(Oc2ccc(F)cc2F)cn1)[C@H]1CCC[C@@H](c2ccc(=O)[nH]c2)C1` [Example 282, (R)—N-(5-(2,4-difluorophenoxy)pyridin-2-yl)-2-((1S,3R)-3-(6-oxo-1,6-dihydropyridin-3-yl)cyclohexyl)propanamide], with at most 10 nM; and `C[C@@H](C(=O)Nc1ccc(Oc2ccc(F)cn2)cn1)[C@H]1CCC[C@@H](c2ccc(=O)[nH]c2)C1` [Example 283, (R)-N-(5((5-fluoropyridin-2-yl)oxy)pyridin-2-yl)-2-((1S,3R)-3-(6-oxo-1,6-dihydropyridin-3-yl)cyclohexyl)propanamide], with at most 10 nM; and `CC(C(=O)Nc1cnc(Oc2ccc(F)cc2)cn1)C1CCC[C@@H](c2ccc(=O)[nH]c2)C1` (stereo partly drawn) [Example 284, N-(5-(4-fluorophenoxy)pyrazin-2-yl)-2-((3R)-3-(6-oxo-1,6-dihydropyridin-3-yl)cyclohexyl)propanamide], with 10 to 100 nM. Compound `C[C@@H](C(=O)Nc1ccc(Oc2ncc(F)cc2F)cn1)[C@H]1CCC[C@@H](c2ccc(=O)[nH]c2)C1` [Example 285, (R)-N-(5-((3,5-difluoropyridin-2-yl)oxy)pyridin-2-yl)-2-((1S,3R)-3-(6-oxo-1,6-dihydropyridin-3-yl)cyclohexyl)propanamide] gave an IC50 of at most 10 nM.

On to `C[C@@H](C(=O)Nc1cnc(Oc2ccc(F)cc2F)cn1)[C@H]1CCC[C@@H](c2ccc(=O)[nH]c2)C1` [Example 286, (R)-N-(5-(2,4-difluorophenoxy)pyrazin-2-yl)-2-((1S,3R)-3-(6-oxo-1,6-dihydropyridin-3-yl)cyclohexyl)propanamide], for which the IC50 was at most 10 nM. Next, `C[C@@H](C(=O)Nc1ccc(Oc2ccc(F)cn2)cn1)[C@H]1CCC[C@@H](c2cc[n+]([O-])cc2)C1` [Example 287, 4-((1R,3S)-3-((R)-1-((5-((5-fluoropyridin-2-yl)oxy)pyridin-2-yl)amino)-1-oxopropan-2-yl)cyclohexyl)pyridine 1-oxide]: 10 to 100 nM. Next, `C[C@@H](C(=O)Nc1ccc(Oc2ccc(F)cc2F)cn1)[C@H]1CCC[C@@H](c2cc[n+]([O-])cc2)C1` [Example 289, 4-((1R,3S)-3-((R)-1-((5-(2,4-difluorophenoxy)pyridin-2-yl)amino)-1-oxopropan-2-yl)cyclohexyl)pyridine 1-oxide]: at most 10 nM; `C[C@@H](C(=O)Nc1ccc(Oc2ncc(F)cc2F)cn1)[C@H]1CCC[C@@H](c2cc[n+]([O-])cc2)C1` [Example 290, 4-((1R,3S)-3-((R)-1-((5-((3,5-difluoropyridin-2-yl)oxy)pyridin-2-yl)amino)-1-oxopropan-2-yl)cyclohexyl)pyridine 1-oxide]: 10 to 100 nM. Then `C[C@@H](C(=O)Nc1ccc(Oc2ccc(F)cc2F)cn1)[C@H]1CCC(F)(F)[C@@H](c2cc[n+]([O-])cc2)C1` [Example 291, 4-((1R,5S)-5-((R)-1-((5-(2,4-difluorophenoxy)pyridin-2-yl)amino)-1-oxopropan-2-yl)-2,2-difluorocyclohexyl)pyridine 1-oxide], with at most 10 nM; and `C[C@@H](C(=O)Nc1cnc(Oc2ccc(F)cc2)cn1)[C@H]1CCC(F)(F)[C@@H](c2cc[n+]([O-])cc2)C1` [Example 292, 4-((1R,5S)-2,2-difluoro-5-((R)-1-((5-(4-fluorophenoxy)pyrazin-2-yl)amino)-1-oxopropan-2-yl)cyclohexyl)pyridine 1-oxide], with 10 to 100 nM; and `C[C@@H](C(=O)Nc1ccc(Oc2ncc(F)cc2F)cn1)[C@H]1CCC(F)(F)[C@@H](c2cc[n+]([O-])cc2)C1` [Example 293, 4-((1R,5S)-5-((R)-1-((5-((3,5-difluoropyridin-2-yl)oxy)pyridin-2-yl)amino)-1-oxopropan-2-yl)-2,2-difluorocyclohexyl)pyridine 1-oxide], with at most 10 nM. As to `C[C@@H](C(=O)Nc1ccc(Oc2ccc(F)cn2)cn1)[C@H]1CCC(F)(F)[C@@H](c2cc[n+]([O-])cc2)C1` [Example 294, 4-((1R,5S)-2,2-difluoro-5-((R)-1-((5-((5-fluoropyridin-2-yl)oxy)pyridin-2-yl)amino)-1-oxopropan-2-yl)cyclohexyl)pyridine 1-oxide], the IC50 is at most 10 nM. Next, `C[C@@H](C(=O)Nc1cnc(Oc2ccc(F)cc2F)cn1)[C@H]1CCC(F)(F)[C@@H](c2cc[n+]([O-])cc2)C1` [Example 295, 4-((1R,5S)-5-((R)-1-((5-(2,4-difluorophenoxy)pyrazin-2-yl)amino)-1-oxopropan-2-yl)-2,2-difluorocyclohexyl)pyridine 1-oxide]: at most 10 nM.
